# Experimental data taken from a melting point compilation (Tetko et al.).
row,melting point [°C],Compound
1,229 to 231,O=C(O)c1nn(-c2cc(C(F)(F)F)ccc2Cl)c2c1CCC2
2,79 to 81,CSc1cc(N)ccn1
3,229 to 231,NC(C(=O)O)c1cc(F)ccc1F (stereo not given)
4,123 to 125,Cc1cc(C=O)c(C)n1-c1ccc(Cl)cc1
5,86 to 88,O=C(O)CCC=Cc1ccccc1
6,198 to 202,CCCc1nnc(N)s1
7,218 to 220,Oc1nc(-c2ccc(Cl)cc2)cs1
8,76 to 78,O=C(O)C1CCCSC1 (stereo not given)
9,179 to 181,O=C(O)C1CC(=O)N(c2ccc3c(c2)CCC3)C1 (stereo not given)
10,100 to 102,OCc1nnnn1-c1ccccc1
11,63 to 65,CC1(C)OC(=O)C(C(=O)C2CCCC2)C(=O)O1
12,85 to 87,FC(F)c1nc(Cl)c2ccccc2n1
13,172 to 174,NC(=O)c1c(F)cc(Br)cc1F
14,94 to 96,COc1ccc(OC)c(C=NO)c1
15,180 to 182,O=c1c2cc(Cl)ccc2nc2n1CCC2
16,65 to 67,Cc1cc(C=O)ccc1[N+](=O)[O-]
17,205 to 207,N#Cc1cc2c(nc1N)CCC2
18,109 to 111,COc1ccc(C=O)cc1OCc1ccc([N+](=O)[O-])cc1
19,138 to 140,CN1CCC(=O)Nc2cc(Cl)ccc21
20,139 to 141,CC1=NOC(=O)C1CCC(=O)O (stereo not given)
21,234 to 236,Cc1nn(-c2ccccc2)c2sc(C(=O)O)cc12
22,91 to 93,O=C(O)CCCNc1ccc(C(F)(F)F)cn1
23,77 to 79,Nc1ccn(-c2ccccc2)n1
24,248 to 250,O=C(O)CCNC(=O)Nc1ccc(Br)cc1

row,melting point [°C],Compound
1,98 to 100,NNc1ccnc(F)c1
2,238 to 240,CC(C)CNS(=O)(=O)c1ccc(C(=O)O)cc1
3,45 to 47,O=S(=O)(Cl)c1cnccc1Cl
4,90 to 92,CN(C)C(=O)C1CNc2ccccc2O1 (stereo not given)
5,114 to 116,CC(C)(C)C(N)=S
6,143 to 145,Cc1occc1C(=O)NCC(=O)O
7,104 to 106,COC1CCN(C(=O)Nc2cccc(C(C)=O)c2)CC1
8,238 to 240,O=C(O)c1ccc(-n2ccnc2)nn1
9,76 to 78,COc1cccnc1N
10,125 to 127,Oc1cccc(CNC2CC2)c1
11,170 to 172,Cc1c(N)cccc1N1CCCC1=O
12,66 to 68,CCOc1ccc([N+](=O)[O-])cc1C=O
13,93 to 95,Clc1nnc(-c2ccccc2Cl)s1
14,219 to 221,Brc1c[nH]c2nc(C3CCCO3)nc-2c1 (stereo not given)
15,57 to 59,CC(=O)CC(=O)Nc1cccc(C)c1
16,199 to 201,CCCn1c(C)cc(/C=C(\C#N)C(=O)O)c1C
17,153 to 155,Cc1ccc(-c2nc(N)sc2-c2ccc(C)cc2)cc1
18,93 to 95,CCN(CC)S(=O)(=O)c1ccc2nc(CCl)[nH]c2c1
19,212 to 214,Cc1cccc(C)c1NS(=O)(=O)c1ccc(N)cc1
20,126 to 128,Cc1ccc(OCCCC(=O)O)c(C)c1
21,164 to 166,Nc1noc(-c2ccccc2)n1
22,140 to 142,CN1CCN(c2ncc(Br)cc2CO)CC1
23,192 to 194,Cc1ccc(C)c(-n2ccnc2S)c1
24,53 to 55,COC(=O)c1ccc(S)cc1

row,melting point [°C],Compound
1,55 to 57,CC1CC1c1cc(N)on1 (stereo not given)
2,83 to 87,O=Cc1ccc(-c2ccc(Cl)cc2)s1
3,257 to 259,Sc1nnc2c(Cl)cc(Cl)cn12
4,140 to 142,Cc1sc2nc(-c3ccc(OC(F)F)cc3)nc(Cl)c2c1C
5,115 to 117,CNS(=O)(=O)c1ccccc1CN
6,147 to 149,CC1(C)NC(=O)N(CCOc2ccc(N)cc2)C1=O
7,93 to 95,CC(=O)c1ccc(-c2ccncc2)cc1
8,62 to 66,O=C(NCc1ccccc1)OCC(F)(F)F
9,140 to 142,COc1cc(C(=O)O)ccc1OC(C)C
10,191 to 193,Cc1ccc(S(=O)(=O)N(C)C)cc1NC(=S)NN
11,197 to 199,CCC(c1ccccc1)c1nnc(N)o1 (stereo not given)
12,168 to 170,O=C(NCCc1ccc(O)cc1)c1ccc(Cl)cc1
13,146 to 148,CN(c1ccccc1C(=O)O)S(C)(=O)=O
14,156 to 158,CNS(=O)(=O)c1cc(OC)c(OC)cc1Br
15,199 to 201,Cc1ccc(N)cc1N1C(=O)CCC1=O
16,93 to 95,CC(C)(C)NS(=O)(=O)CC(=O)O
17,157 to 159,COC(=O)c1cnc(NC2CC2)s1
18,174 to 176,COc1cc(N)c([N+](=O)[O-])cc1OC
19,53 to 55,Cn1cc(CNc2ccccc2C(F)(F)F)cn1
20,142 to 144,Cc1nn(-c2ccc(C(F)(F)F)cn2)c(C)c1CC(=O)O
21,229 to 231,O=C(O)C1CCc2[nH]ncc2C1 (stereo not given)
22,79 to 81,Brc1nnc(Cc2ccccc2)s1
23,196 to 198,CC(=O)NCc1ccc(C(=O)N2CCCC2C(=O)O)cc1 (stereo not given)
24,165 to 167,O=C(O)CS(=O)(=O)CC(=O)Nc1cccc(Br)c1

row,melting point [°C],Compound
1,82 to 84,Cc1cc(SC#N)cc(C)c1N
2,111 to 113,Cc1ccc(C(C)C(O)C(=O)O)cc1 (stereo not given)
3,103 to 105,COC(=O)C1CCN(C(=O)c2ccc(Cl)c(Cl)c2)CC1
4,67 to 69,COc1ccc(-c2nc(CN)cs2)cc1
5,234 to 236,CC(C)C(NC1=NS(=O)(=O)c2ccccc21)C(=O)O (stereo not given)
6,124 to 126,CC(=O)NCCc1ccc(C(=O)CCl)s1
7,163 to 165,Cc1ccc(NCCc2ccc(Cl)cc2)nn1
8,119 to 121,Cc1nc2ccccc2n1C(C(=O)O)C(C)C (stereo not given)
9,219 to 221,Nc1nnc(-c2cccc(Br)c2)[nH]1
10,55 to 57,Clc1nc(-c2ccccc2)cs1
11,179 to 182,O=C(O)c1cc(Br)ccc1F
12,85 to 87,CNC(=O)Cc1ccccc1N
13,38 to 40,O=C(Cc1ccc(Br)cc1)C(F)(F)F
14,77 to 79,COC(=O)c1csc([N+](=O)[O-])c1
15,150 to 152,NC(=O)CCN1C(=O)NC2(CCCC2)C1=O
16,39 to 41,CC(C(=O)O)C1CCOCC1 (stereo not given)
17,105 to 107,CNS(=O)(=O)c1cc(Br)ccc1C
18,89 to 91,O=C1NCCCc2sccc21
19,151 to 153,c1ccc2[nH]c(C3CCCCN3)cc2c1 (stereo not given)
20,127 to 129,C[C@H](NC(=O)C1CCCCC1)C(=O)O
21,179 to 181,Nc1cc(S(=O)(=O)N2CCOCC2)ccc1N1CCCC1
22,95 to 97,O=C(O)c1cc(Cl)ccc1OC1CCCC1
23,156 to 158,CC1(C)C(=O)Nc2ccc(Br)cc21
24,124 to 126,O=C(c1c[nH]c2ccccc12)C(Cl)c1ccccc1 (stereo not given)

row,melting point [°C],Compound
1,172 to 174,CN(CC(=O)O)S(=O)(=O)c1ccc2ccccc2c1
2,134 to 136,O=C(O)CNc1ccc(C(F)(F)F)cn1
3,124 to 126,COC(=O)c1cc(Cl)c(N)cc1OC
4,93 to 95,O=C1CCSc2cc(F)c(F)cc21
5,118 to 120,O=S(=O)(c1ccc(Cl)c(N=C=S)c1)N1CCOCC1
6,150 to 152,Nc1cc2c(cc1[N+](=O)[O-])OCCO2
7,58 to 60,Cc1nn(C(C)C)c(C)c1N
8,111 to 113,Cc1c(N)cccc1S(=O)(=O)NC1CC1
9,104 to 106,c1cn2c(n1)NCCC2
10,239 to 241,O=C(O)c1ccc(S(=O)(=O)CC(F)(F)F)cc1
11,59 to 61,Cc1onc(CC(=O)O)c1C#N
12,79 to 81,ClCc1noc(-c2ccc(Cl)cc2)n1
13,33 to 35,CNC(C)(C#N)Cn1cc(Br)cn1 (stereo not given)
14,128 to 130,NS(=O)(=O)c1cccc2c1N=S=N2
15,153 to 155,CC(C)(C)[Si](C)(C)Oc1cc(C(=O)O)cc2ccccc12
16,202 to 204,O=C(O)Cc1csc(-c2ccc(F)c(F)c2)n1
17,151 to 153,O=C(O)c1cc(COc2ccc(Cl)cc2Cl)on1
18,149 to 151,CC1=CC=CC(=C2Nc3cc(F)ccc3N2C2CC2)C1=N
19,58 to 60,CCc1cccc(CC(=O)O)c1
20,110 to 112,CS(=O)c1cccc(N)c1 (stereo not given)
21,222 to 224,Nc1cc(Br)ccc1C(=O)O
22,120 to 122,O=C(O)CCCNS(=O)(=O)c1ccc2c(c1)OCCO2
23,93 to 95,CS(=O)(=O)CCc1ccc(N)cc1
24,126 to 128,ON=C1CCN(Cc2ccccc2)CC1

row,melting point [°C],Compound
1,149 to 151,O=C(O)c1ccc(F)c(COc2ccc(F)cc2)c1
2,196 to 198,COc1cc(Br)c(S(=O)(=O)Cl)cc1C(=O)O
3,84 to 86,CCC(=O)Nc1cccc(C#N)c1
4,193 to 195,CCc1ncsc1C(=O)O
5,183 to 185,Cc1[nH]nc(C(=O)O)c1[N+](=O)[O-]
6,172 to 174,O=c1cc(CCl)nc2ccc(Br)cn12
7,29 to 31,O=C(O)C1CC1C1CC1 (stereo not given)
8,147 to 149,Nn1cnc2ccccc21
9,228 to 230,O=C1COc2ccc(C(=O)O)cc2N1
10,226 to 228,O=C(O)Cc1ccc(NC(=O)c2ccccc2I)cc1
11,76 to 78,OCCCc1nc2ncccn2n1
12,207 to 209,Cn1cc[nH]c(=O)c1=O
13,141 to 145,CC(Cl)C(=O)Nc1ccc(OCc2ccccc2)cc1 (stereo not given)
14,111 to 113,c1ccc(Cc2nnc3n2CCNC3)cc1
15,149 to 151,N#Cc1cnc(C(=O)O)c(Cl)c1
16,147 to 149,CC1CCN(CC(=O)O)CC1
17,107 to 109,Cc1cc(N2CCCC2=O)ccc1Br
18,183 to 185,O=C1CNC(=O)N1Cc1ccc(Cl)c([N+](=O)[O-])c1
19,89 to 91,Nc1nc(Cc2ccccc2)cs1
20,157 to 159,Nc1ccc(F)c(NC(=O)C2CCCCC2)c1
21,230 to 232,COC(=O)c1ccc(-c2nn[nH]n2)cc1
22,119 to 121,N#Cc1ccc(S(=O)(=O)Cl)c([N+](=O)[O-])c1
23,306 to 308,Cc1ccc(/C=C/c2cc(C(=O)O)c3cc(Br)ccc3n2)cc1

row,Compound,melting point [°C]
1,c1ccc2c(c1)CN1CCCC1CN2 (stereo not given),107 to 109
2,CC(C)(C)n1cc(C(=O)O)cn1,155 to 157
